The values that follow come from US20260146102A1, “METHODS FOR MODULATING REGULATORY T CELLS” (Universite de Lausanne, priority 2018, published 2026).

Each structure is given as a SMILES string.

In test [1] the test system is YUMM1.7 melanoma. In words: YUMM1.7 melanoma-engrafted mice treated with PPARβ selective agonist. It is filed as in vivo. How it is done:
Tumor engraftment and treatment of tumor-bearing mice. For tumor induction, 3-week-old Braf/Pten mice were treated with 4-hydroxytamoxifen on the skin surface as described before to induce tumor formation (Ho, P. C. et al. Cancer Res 74, 3205-3217 (2014)). For tumor engraftment, 5×10^4 cells YUMM1.7, B 16-OVA, or one million MC38 tumor cells were injected subcutaneously in 50 μl PBS. Tumors were measured every 2-3 days post tumor engraftment or indicated treatments and calculated. Tumor volume was calculated by volume=(length×width^2 )/2 for engrafted tumor or volume=(length×width×height) for inducible tumor. For in vivo treatment, Yumm 1.7-bearing mice were administrated every 3 days with either DMSO or PPARβ agonist (GW 501516) (1 mg per kg of body weight, Cayman Chemical) by intraperitoneal injection. For antibody-based treatment, tumor-bearing mice were treated with anti-PD-1 antibody (200 μg per injection, BioXcell, clone 29F.1A12) and anti-CD36 antibody (200 μg per injection, clone CRF D-2712 (Driscoll, W. S., et al. Circulation research 113, 52-61 (2013)) according to indicated combination by intraperitoneal injection. For antibody treatment in the Braf/Pten mouse model, four weeks after tumor induction, tumor-bearing Braf/Pten mice were treated with anti-CD36 antibody and/or anti-PD-1 antibody as indicated above for a period of 10 days. All experiments were conducted according to Swiss federal regulations.
Tumor digestion and cell isolation. Tumors were minced into small pieces in RPMI containing 2% FBS, 1% penicillin-streptomycin (p/s), DNase I (1 μg/ml, Sigma-Aldrich), and collagenase (0.5 mg/ml, Sigma-Aldrich) and kept for digestion for 40 min at 37° C., followed by the filtration with a 70 μm cell strainer. Filtered cells were incubated with ACK lysis buffer (Invitrogen) to lyse red blood cells and then washed with fluorescent activated cell sorter (FACS) buffer (phosphate-buffered saline with 2% fetal bovine serum and 2 mM EDTA). Tumor-infiltrating leukocytes were further enriched by percoll density gradient centrifugation (800×g, 30 min) at room temperature as described before (Cheng, W. C. et al. Nat Immunol 20, 206-217 (2019)).
Flow cytometry, cell sorting, and antibodies. Single cell suspensions were incubated with Fc receptor-blocking anti-CD16/32 (93) and anti-CD351 (TX61) antibodies (Biolegend) on ice for 10 min before staining. Cell suspensions were first stained with LIVE/DEAD® Fixable Violet Dead Cell Stain Kit (ThermoFisher) at 37° C. for 10 min. After washing, surface proteins were stained for 30 min at 4° C. […] Samples were analyzed on LSRII flow cytometers (BD Biosciences) and data were analyzed with FlowJo. […]

For test [2], the system named is CD36-deficient Tregs. In words: NAD/NADH measurement in CD36-deficient iTregs cultured in cancer cell-conditioned medium. It is filed as cell-based, mice. Conditions: 48 h, vs DMSO. On the procedure:
Cancer cell-conditioned medium and iTreg culture. iTregs were generated by activating naïve CD4^+ T cells with Dynabeads conjugated with anti-CD3 and anti-CD28 mAbs (ThermoFisher) in RMPI media supplemented with 10% FBS, 10 ng/ml TGFβ and 50 U/ml IL-2 for three days. Then activated CD 4^+ T cells were maintained in RPMI media plus 10% FBS and 50 U/ml IL-2 for another 2 days. Differentiated iTregs were firstly sorted by using FACS cell sorter and then incubated in indicated culture condition for 48 h. The survival and NAD/NADH levels of iTregs were then determined by live/dead staining and ELISA kits, respectively. For NAD/NADH measurement in CD36-KO iTregs treated with PPARβ agonist, sorted iTregs were cultured in cancer cell-conditioned medium in the presence of DMSO or GW50156 for 48 h. […]
NAD and NADH measurement. The ratio of nicotinamide adenine dinucleotide (NAD) and nicotinamide adenine dinucleotide […] (NADH) was measured by using the commercial NAD/NADH Quantification Kit (Sigma-Aldrich MAK037). […]
decomposition. The samples were then transferred to a 96 wells plate for measuring the absorbance of 450 nm. […] The ratio of NAD/NADH in a sample could be determined by the following equation: ratio=(NADtotal−NADH)/NADH.

The subject of test [3] is CD36-deficient Tregs. Description: Viability of iTregs in cancer cell-conditioned medium with or without NR. In kind it is cell-based, mice. Conditions: NR 400 μM, 72 hrs (FIG. 3i). How it is done:
Cancer cell-conditioned medium and iTreg culture. iTregs were generated by activating naïve CD4^+ T cells with Dynabeads conjugated with anti-CD3 and anti-CD28 mAbs (ThermoFisher) in RMPI media supplemented with 10% FBS, 10 ng/ml TGFβ and 50 U/ml IL-2 for three days. Then activated CD 4^+ T cells were maintained in RPMI media plus 10% FBS and 50 U/ml IL-2 for another 2 days. […] The survival and NAD/NADH levels of iTregs were then determined by live/dead staining and ELISA kits, respectively. For NAD/NADH measurement in CD36-KO iTregs treated with PPARβ agonist, sorted iTregs were cultured in cancer cell-conditioned medium in the presence of DMSO or GW50156 for 48 h. Control RPMI for iTreg in vitro treatment was prepared with RPMI 1640 medium (Biological Industries) supplementing with 2 mM Glucose, 10 mM Glutamine, 10% Dialyzed FBS, 0.1% β-ME, and indicated levels of lactic acids. YUMM1.7 cancer cell-conditioned medium was collected by incubating YUMM1.7 cells (70-80% density) with control RPMI described above for 18 h. Then, culture medium was collected and centrifuged at 2000 rpm for 15 min to remove debris and cancer cells as cancer cell-conditioned medium. YUMM1.7 cancer cell-conditioned medium collected as described above was treated with Cleanascite™ reagent (Biotech Support Group) prior to Treg culture at a volume ratio of 1:5 according to the manufacturer's instruction.

`Cc1cc(SCc2sc(-c3ccc(C(F)(F)F)cc3)nc2C)ccc1OCC(=O)O` [GW501516]: in test [1] (Treg^CD36−/− mice (FIG. 4i)), the “cleaved caspase-3 in intratumoral Tregs” value was “lower levels”. For the same compound, in test [1] (Treg^CD36−/− mice (FIG. 4h)), the “mitochondrial membrane potential of intratumoral Tregs (MitoTracker Deep Red staining)” value was “increased mitochondrial membrane potentials”. In addition, the “intratumoral Treg abundance (FoxP3+ Tregs among CD4+ tumor-infiltrating T lymphocytes)” value in test [1] (Treg^CD36−/− mice, 1 mg per kg i.p. every 3 days, two weeks (FIG. 4g)) was “restored”. The tumor growth entry in test [1] (Treg^CD36−/− mice, 1 mg per kg i.p. every 3 days, two weeks, vs control vehicle (FIG. 4f)) was “restored tumor growth”. Besides, the NAD/NADH ratio result in test [2] is given as “increased NAD/NADH ratios”.

Consider `NC(=O)c1ccc[n+]([C@@H]2O[C@H](CO)[C@@H](O)[C@H]2O)c1` [nicotinamide riboside], for which the “viability of CD36-deficient Tregs exposed to cancer cell-conditioned medium” value in test [3] is recorded as “partially rescued the viability”.
